The results in this text go back to a melting point compilation (Tetko et al.; mined from patent text by program, amines drawn as free bases though some values may be those of a salt).

Non-standard residues stand in square brackets, D forms with d. Residues, ends and D or L forms follow the SMILES beside them. ξ: configuration not given here. *: point of attachment. ξF = NC(Cc1ccccc1)C(=O)O; Boc = CC(C)(C)OC(=O)*

In general, melting point refers to the temperature of the solid-liquid transition. `Cc1cc(Oc2cccc(C#N)n2)n(C)n1` had a melting point of 95 °C. Turning to `CCOP(=O)(Cc1ccc(-c2nc3cccc(Cl)c3o2)cc1)OCC`, the melting point lay within 92 to 93 °C. Take `Cn1c(CO)nc2ncccc21`: the melting point was in the range of 130 to 132 °C.

Compound `O=C(O)COc1ccc(CCc2nc(-c3ccccc3)c(-c3ccccc3)o2)cc1` displayed a melting point of 147 to 149 °C. In turn, `CC(=O)Oc1cc(S(=O)(=O)Oc2ccc(C(=O)c3c(Cc4ccc(Br)cc4)sc(C)c3C)cc2C2CCCC2)ccc1C(=O)O` returned a melting point of 113 to 114 °C.

In turn, `COc1ccc(-c2ccc(C(C)=O)cc2)cc1F` displayed a melting point of 149 to 150 °C. With `O=C(Nc1ccccc1C(F)(F)F)c1ccc([N+](=O)[O-])cc1` the figure was 126 °C; with `COC(=O)CCCOc1cc([N+](=O)[O-])c(C(C)NC(=O)C(F)(F)F)cc1OC` (stereo not given), 156 to 157 °C. In the case of `CON(C)C(=O)c1cc(-c2ccccc2)n[nH]1` it was 135 to 138 °C; in that of `CCOc1ccc([N+](=O)[O-])c(NC2CCCCCC2)c1`, 83 °C; in that of `O=C(Nc1ccccc1S(=O)(=O)c1ccccc1)N[C@@H](Cc1ccc(NCc2c(Cl)cccc2Cl)cc1)C(=O)O`, 116 °C. With `CCc1ccc(C(=O)Cc2ccc(Br)cc2)cc1` the figure was 146 °C; with `CCCC(=O)Nc1cc(C(=O)Nc2cc(C(=O)Nc3ccc(O)cc3CCBr)n(C)c2)n(C)c1`, 138 to 150 °C. `CNC(=N)N(C)Cc1ccc(C)cc1` showed a melting point of 118 to 125 °C. `CC(C)(C)c1cc(C(=O)Nc2ccc(Cl)c(C(=O)O)c2)cc(C(C)(C)C)c1O` came in with a melting point of 265 to 267 °C.

`COC(=O)c1cccc2c(Cl)c(OC)ccc12` registered a melting point of 125 °C.

In turn, `CC(C)=NOCc1nc2c(N)nc3cc(-c4ccccc4)cnc3c2n1CC(C)C` gave a melting point of 196 to 197 °C. The compound `CCN(CC)CCN1c2ccccc2N(C)C(=O)c2ccc(C)nc21` yielded a melting point of 91 to 93 °C. With `NCCCOc1ccc(-c2ncc3c(=O)[nH][nH]c(=O)c3c2O)cc1` the figure was > 300 °C; with `Cc1ccc(-c2cc(C(=O)O)nn2Cc2ccc(F)cc2)cc1C`, 141 °C; with `CCOCCc1ccc(OCCN(C(=O)n2ccnc2)c2ncnc(C)c2Cl)c(C)c1`, 87 to 88 °C. With `COc1cc(OCCN2CCCC2)cc2nc(-c3cc(C)nc(C)c3)[nH]c(=O)c12` the figure was 227 to 229 °C. In the case of `CC(C)(C)OC(=O)N[C@@H](Cc1ccccc1)C(=O)CCC(=O)N[C@@H](Cc1c[nH]c2ccccc12)C(=O)O` it was 141 to 143 °C; in that of `O=C(OCC12CCCN(CC1)C2)c1c[nH]c2ccccc12` (stereo not given), 184 to 185 °C. As for `CCOC(=O)CC=NCC(O)COc1ccccc1C#N` (stereo not given), the melting point came out at 120 °C. In the case of `Cc1nc(Cl)c2c(c1O)COC2(c1ccccc1)c1ccccc1` it was 240 °C; in that of `C#CCOc1ccc(-c2nc3ccccc3o2)cc1`, 124 to 127 °C; in that of `OCC1(c2ccccc2)CCN(Cc2ccccc2)CC1`, 127 °C. With `Nc1cccc(CN2C(=O)[C@H]3CCC[C@H]3Nc3ccccc32)c1` (relative stereo) the figure was 176 to 178 °C. With `C/C(=C\c1ccc(-c2ccccc2)cc1)C(=O)O` the figure was 178 °C. Turning to `Cc1ccc2c(n1)CCCC2(O)c1ccccc1` (stereo not given), the melting point is 130 to 134 °C. In the case of `COc1ncccc1-c1cnn2ccc(N3CCN(C(=O)OC(C)C)CC3)nc12` it was 131 to 132 °C. With `CCC1CCC2(O)C3CC=C4CC(O)CCC4(C)C3CC(O)C12C` (stereo not given) the figure was 228 to 235 °C. On to `CNC(=S)C1(c2ccc(C)cn2)CCCS1` (stereo not given), for which the melting point turned out to be 134 °C. With `COCC1CN(c2ccc3cc(OCC4CC4)ccc3c2)C(=O)O1` (stereo not given) the figure was 119 to 120 °C. With `COc1cc2c(Nc3cc(OC)c(OC)c(OC)c3)c(C#N)cnc2cc1/C=C/CCN1CCN(C)CC1` the figure was 122 to 124 °C; with `N=C(N)c1ccc(C(=O)NCCCC(=O)NCCC(=O)O)cc1`, > 250 °C. For `COc1cc(C)c2ccc(=O)[nH]c2n1`, the melting point is 214 to 216 °C.

For the compound `O=C(Nc1cccnc1)N1CCN(c2cc(-c3cccc(F)c3)ncn2)CC1`, the melting point was 205 to 206 °C.

For `CCCCC1OC(=O)c2cc(C#N)ccc21` (stereo not given), the melting point lay within 85 to 86 °C. With `Cn1cc(CCl)c(=O)c2ccc(F)cc21` the figure was 169 to 171 °C. In the case of `CCOC(=O)Cc1sc(Sc2cc(C(=O)OC)nc3ccccc23)nc1C`, the melting point lay in the range of 94 to 95 °C. The compound `Cc1ccc(-c2c(Cl)ncn2-c2ccc(S(C)(=O)=O)cc2)cc1F` yielded a melting point of 176 °C. With `CCCCCCS(=O)(=O)c1c(Br)cc(N)cc1Br` the figure was 192 to 194 °C. In the case of `CCOC(=O)c1nc(N)sc1-c1nc2ccc(Cl)cn2c1C` it was 217 to 219 °C. With `N#Cc1c(N2CCCCC2)cc(-c2cccs2)c2c1Cc1ccccc1-2` the figure was 148 to 150 °C; with `Cc1cccc(N2CC(c3cccc(-c4ccc(S(C)(=O)=O)cc4)c3)=CN2)n1`, 95 to 97 °C.

In turn, `O=c1[nH]c2cc(Cl)ccc2c(O)c1-c1cccc(Br)c1` came in with a melting point of 358 °C.

`CCOC(=O)C1=C(C)NC(N=CCN(C)C)=C(C(=O)OCC)C1c1cccc([N+](=O)[O-])c1` (stereo not given) displayed a melting point of 172 °C. With `CCSC1(SCC)C(=O)CC2C3CCC4=CC(=O)C=CC4(C)C3(F)C(O)CC21C` (stereo not given) the figure was 268 to 270 °C; with `Cc1oc(-c2ccccc2)nc1COc1ccc(COc2ncccc2C#N)cn1`, 117 to 118 °C. In the case of `COC(=O)C(=C/c1ccccc1)/C(=C\c1cc(OC)c(OC)c(OC)c1)C(N)=O` it was 121 to 122 °C. In the case of `Cn1c(C(F)(F)F)ccc(-c2cc([N+](=O)[O-])c(Cl)cc2F)c1=O` it was 139 to 140 °C; in that of `CC(Oc1cc(O)ccc1[N+](=O)[O-])C(=O)O` (stereo not given), 190 to 195 °C; in that of `CCc1[nH]n(-c2c(Cl)cc(Cl)cc2Cl)c2nc(Cc3ccc(-c4ccc(OC)cc4)cc3)nc(=O)c1-2`, 275 to 277 °C. `C[C@@H]1C[C@@H]([C@H](CC2CCCCC2)NC(=O)OC(C)(C)C)OC1=O`: the melting point lay in the range of 80 to 82 °C. With `COc1ccc(C(N)=Nc2ccc(C(=O)O)cc2)cc1C12CC3CC(CC(C3)C1)C2` the figure was 263 to 265 °C; with `O=C1Nc2ccc(-c3cccc(Cl)c3)cc2C(C2CC2)(C2CC2)O1`, 198 to 200 °C.

Consider `COc1ccc(F)c(C(N)=O)c1`, for which the melting point fell in the range of 122 to 124 °C. With `CS(=O)(=O)Cc1ccc(C(=O)c2ccc(Cl)cc2)cc1` the figure was 164 to 166 °C. With `O=C(O)CCN1CCN(C2=Nc3ccccc3Cc3ccccc32)CC1` the figure was 140 to 141 °C.

Turning to `CNC(=O)C(Cc1ccccc1)NC(=O)CNC(=O)OC(C)(C)C` (stereo not drawn) (Boc-Gly-[ξF]-NHMe), the melting point fell in the range of 158 to 160 °C.

`CC1(OC(=O)c2ccco2)C=CC(COC(=O)c2ccco2)=CN1` (stereo not given): the melting point fell in the range of 118 to 119 °C. In the case of `CC(C)(O)c1cc(-c2ccc(Cl)cc2)nc2ccnn12` it was 113 to 115 °C; in that of `O=C(O)c1cnn(-c2c(Cl)cc(C(F)(F)F)cc2Cl)n1`, 155 to 157 °C; in that of `NC(=O)c1c(C(=O)O)cnn1-c1cccc(Cl)c1Cl`, 228 to 230 °C. Compound `CC(C)(Cc1ccccc1)C(NC(=O)CCc1ccccc1)Nc1c(Nc2cccnc2)c(=O)c1=O` (stereo not given) returned a melting point of 221 to 223 °C. Turning to `COc1cc(Nc2c(C#N)cnc3cc(-c4ccc(C(=O)O)cc4)ccc23)c(Cl)cc1Cl`, the melting point lay in the range of 282 to 283 °C.

Compound `CNc1nc(Cl)c(SC)c(N2CCN(c3ccccc3)CC2)n1` showed a melting point of 163 to 164 °C. With `CCN1CCNC1=C[N+](=O)[O-]` the figure was 110 to 111 °C; with `Cc1nc(=O)c(O)c(-c2ccc(Cc3ccc(F)cc3)cn2)[nH]1`, > 300 °C.

Turning to `FC(F)(F)c1ccc(-c2cc(Oc3ccc4cccnc4c3)ncn2)c(NCC2CCCCC2)c1`, the melting point lay in the range of 137 to 138 °C. On to `Cc1c(-c2cc(C#N)ccc2F)sc2nc(N)[nH]c(=O)c12`, for which the melting point lay in the range of 332 to 336 °C. In the case of `CC(C)Oc1ncc(OC(=O)C2(C)CC2)cc1Cl` it was 116 to 117 °C. In the case of `CC(=O)Nc1ccc(-c2ccoc2)cc1[N+](=O)[O-]` it was 152 to 154 °C; in that of `Cc1cc2cnccc2s1`, 47 to 48 °C; in that of `O=C(NC(=O)c1c(F)cccc1Cl)Nc1ccc(Cl)cn1`, 210 to 215 °C. With `O=C(NCCO)c1ccnc(-c2cccc3cc(Cc4cccc(C(F)(F)F)c4)sc23)c1F` the figure was 110 to 111 °C; with `COc1ccc2c(c1)c(CC(=O)OCC(=O)O)c(C)n2C(=O)c1cccc(C(F)(F)F)c1`, 136 to 138 °C.

In the case of `Cc1[nH]c2ccccc2c1C(=O)C(=O)N1CCC(Oc2ccc(F)cc2)CC1`, the melting point was in the range of 213 to 214 °C.

The compound `COc1ccc2c(c1)C(C#N)c1ccccc1CO2` (stereo not given) returned a melting point of 120 to 122 °C. With `CN1Cc2c(-c3nc(CCl)cs3)ncn2-c2ccccc2C1=O` the figure was 248 to 249 °C; with `Cn1ncc2ccc(OCCCCl)cc2c1=O`, 252 to 253 °C. With `COc1ccc2c(c1)C(N1CCCC1=O)NN=C2Cc1c(Cl)cncc1Cl` (stereo not given) the figure was 223 to 225 °C; with `NC(=O)CCCCC1OCC(c2cccc3ccccc23)CO1` (stereo not given), 158 to 160 °C; with `Oc1cc(CN/C=C2\CN=Cc3ccc(Br)cc32)ccc1OC(F)F`, 256 to 258 °C. Compound `O=C1c2ccccc2C(=O)N1CCOc1nc(-c2ccccc2)c2cc(Cl)ccc2n1` registered a melting point of 155 °C. In the case of `COc1cc2c(CC(=O)O)c(C)n(C(=O)c3ccc(Cl)s3)c2cc1F` it was 169 °C; in that of `Clc1ccc2c(c1)C(c1ccccc1Cl)=NCc1c[nH]cc1-2`, 204 to 206 °C; in that of `COc1ccc(-n2nc(C)cc2NC2=NCCN2C(C)=O)cc1`, 129 to 131 °C.
